Reference: patent US9695155B2, “Herbicidal substituted pyrimidinyloxy benzene compounds” (E. I. DU PONT DE NEMOURS AND COMPANY, priority 2013, dated 2017)

Tests used:
Experiment in all cases: Test E preemergence
corn = type: in vivo, Zea mays; settings: for Corn plant response rating: scale 0 to 100 (0 no effect, 100 complete control); for Plant response rating, Corn: scale 0 to 100, 0 no effect, 100 complete control
From the text: (§1) Seeds of plant species selected from corn (Zea mays), soybean (Glycine max), velvetleaf (Abutilon theophrasti), lambsquarters (Chenopodium album), wild poinsettia (Euphorbia heterophylla), palmer pigweed (Amaranthus palmeri), waterhemp (common waterhemp, Amaranthus rudis), surinam grass (Brachiaria decumbens), large (Lg) crabgrass (Digitaria sanguinalis), Brazilian crabgrass (Digitaria horizontalis), fall panicum (Panicum dichotomiflorum), giant foxtail (Setaria faberii), green foxtail (Setaria viridis), goosegrass (Eleusine indica), johnsongrass (Sorghum halepense), ragweed (common ragweed, Ambrosia elatior), barnyardgrass (Echinochloa crus-galli), sandbur (southern sandbur, Cenchrus echinatus), arrowleaf sida (Sida rhombifolia), Italian ryegrass (Lolium multiflorum), dayflower (Virginia (VA) dayflower, Commelina virginica), field bindweed (Convolvulus arvensis), morningglory (Ipomoea coccinea), nightshade (eastern black nightshade, Solanum ptycanthum), kochia (Kochia scoparia), yellow nutsedge (Cyperus esculentus), cocklebur (common cocklebur, Xanthium strumarium), smartweed (ladysthumb smartweed, and hairy beggarticks (Bidens pilosa), were planted into a silt loam soil and treated preemergence with test chemicals formulated in a non-phytotoxic solvent mixture which included a surfactant.
(§2) At the same time, plants from these crop and weed species and also horseweed (Canada horseweed, Conyza canadensis), waterhemp_RES1, (ALS & Triazine resistant common waterhemp, Amaranthus rudis), and waterhemp_RES2, (ALS & HPPD resistant common waterhemp, Amaranthus rudis) were planted in pots containing Redi-Earth® planting medium (Scotts Company, 14111 Scottslawn Road, Marysville, Ohio 43041) comprising spaghnum peat moss, vermiculite, wetting agent and starter nutrients were treated with postemergence applications of test chemicals formulated in the same manner. Plants ranged in height from 2 to 18 cm for postemergence treatments (1- to 4-leaf stage). Treated plants and controls were maintained in a greenhouse for 14 to 21 days, after which time all species were compared to controls and visually evaluated. Plant response ratings, summarized in Table E, are based on a scale of 0 to 100 where 0 is no effect and 100 is complete control. A dash (-) response means no test result.

velvetleaf = type: in vivo, Abutilon theophrasti; settings: for Velvetleaf plant response rating: scale 0 to 100 (0 no effect, 100 complete control); for Plant response rating, Velvetleaf: scale 0 to 100, 0 no effect, 100 complete control
From the text: as §1, §2

lambsquarters = type: in vivo, Chenopodium album; settings: for Lambsquarters plant response rating: scale 0 to 100 (0 no effect, 100 complete control); for Plant response rating, Lambsquarters: scale 0 to 100, 0 no effect, 100 complete control
From the text: as §1, §2

wild poinsettia = type: in vivo, Euphorbia heterophylla; settings: for Poinsettia, Wild plant response rating: scale 0 to 100 (0 no effect, 100 complete control); for Plant response rating, Poinsettia, Wild: scale 0 to 100, 0 no effect, 100 complete control
From the text: as §1, §2

large (Lg) crabgrass = type: in vivo, Digitaria sanguinalis; settings: for Crabgrass, Large plant response rating: scale 0 to 100 (0 no effect, 100 complete control); for Plant response rating, Crabgrass, Large: scale 0 to 100, 0 no effect, 100 complete control
From the text: as §1, §2

Brazilian crabgrass = type: in vivo, Digitaria horizontalis; settings: for Crabgrass, Brazil plant response rating: scale 0 to 100 (0 no effect, 100 complete control); for Plant response rating, Crabgrass, Brazil: scale 0 to 100, 0 no effect, 100 complete control
From the text: as §1, §2

green foxtail = type: in vivo, Setaria viridis; settings: for Foxtail, Green plant response rating: scale 0 to 100 (0 no effect, 100 complete control); for Plant response rating, Foxtail, Green: scale 0 to 100, 0 no effect, 100 complete control
From the text: as §1, §2

sandbur = type: in vivo, Cenchrus echinatus; settings: for Sandbur plant response rating: scale 0 to 100 (0 no effect, 100 complete control); for Plant response rating, Sandbur: scale 0 to 100, 0 no effect, 100 complete control
From the text: as §1, §2

kochia = type: in vivo, Kochia scoparia; settings: for Kochia plant response rating: scale 0 to 100 (0 no effect, 100 complete control); for Plant response rating, Kochia: scale 0 to 100, 0 no effect, 100 complete control
From the text: as §1, §2

yellow nutsedge = type: in vivo, Cyperus esculentus; settings: for Nutsedge, Yellow plant response rating: scale 0 to 100 (0 no effect, 100 complete control); for Plant response rating, Nutsedge, Yellow: scale 0 to 100, 0 no effect, 100 complete control
From the text: as §1, §2

## FC(F)(F)c1cnn(-c2ccccc2Oc2ncc(Cl)cn2)c1 [Compound 16]
corn; 16 g ai/ha
  Corn plant response rating: 0
corn; 31 g ai/ha
  Corn plant response rating: 0
corn; 62 g ai/ha
  Corn plant response rating: 0
corn; 125 g ai/ha
  Plant response rating, Corn: 20
corn; 250 g ai/ha
  Plant response rating, Corn: 25
velvetleaf; 16 g ai/ha
  Velvetleaf plant response rating: 0
velvetleaf; 31 g ai/ha
  Velvetleaf plant response rating: 50
velvetleaf; 62 g ai/ha
  Velvetleaf plant response rating: 85
velvetleaf; 125 g ai/ha
  Plant response rating, Velvetleaf: 100
velvetleaf; 250 g ai/ha
  Plant response rating, Velvetleaf: 100
lambsquarters; 16 g ai/ha
  Lambsquarters plant response rating: 50
lambsquarters; 31 g ai/ha
  Lambsquarters plant response rating: 80
lambsquarters; 62 g ai/ha
  Lambsquarters plant response rating: 98
lambsquarters; 125 g ai/ha
  Plant response rating, Lambsquarters: 98
lambsquarters; 250 g ai/ha
  Plant response rating, Lambsquarters: 98
Wild poinsettia; 16 g ai/ha
  Poinsettia, Wild plant response rating: 0
Wild poinsettia; 31 g ai/ha
  Poinsettia, Wild plant response rating: 0
Wild poinsettia; 62 g ai/ha
  Poinsettia, Wild plant response rating: 50
Wild poinsettia; 125 g ai/ha
  Plant response rating, Poinsettia, Wild: 50
Wild poinsettia; 250 g ai/ha
  Plant response rating, Poinsettia, Wild: 100
Large (Lg) crabgrass; 16 g ai/ha
  Crabgrass, Large plant response rating: 0
Large (Lg) crabgrass; 31 g ai/ha
  Crabgrass, Large plant response rating: 0
Large (Lg) crabgrass; 62 g ai/ha
  Crabgrass, Large plant response rating: 65
Large (Lg) crabgrass; 125 g ai/ha
  Plant response rating, Crabgrass, Large: 80
Large (Lg) crabgrass; 250 g ai/ha
  Plant response rating, Crabgrass, Large: 100
Brazilian crabgrass; 62 g ai/ha
  Crabgrass, Brazil plant response rating: 100
Brazilian crabgrass; 125 g ai/ha
  Plant response rating, Crabgrass, Brazil: 100
Brazilian crabgrass; 250 g ai/ha
  Plant response rating, Crabgrass, Brazil: 100
Green foxtail; 16 g ai/ha
  Foxtail, Green plant response rating: 0
Green foxtail; 31 g ai/ha
  Foxtail, Green plant response rating: 20
Green foxtail; 62 g ai/ha
  Foxtail, Green plant response rating: 70
Green foxtail; 125 g ai/ha
  Plant response rating, Foxtail, Green: 90
Green foxtail; 250 g ai/ha
  Plant response rating, Foxtail, Green: 100
sandbur; 16 g ai/ha
  Sandbur plant response rating: 0
sandbur; 31 g ai/ha
  Sandbur plant response rating: 20
sandbur; 62 g ai/ha
  Sandbur plant response rating: 20
sandbur; 125 g ai/ha
  Plant response rating, Sandbur: 70
sandbur; 250 g ai/ha
  Plant response rating, Sandbur: 95
kochia; 16 g ai/ha
  Kochia plant response rating: 0
kochia; 31 g ai/ha
  Kochia plant response rating: 0
kochia; 62 g ai/ha
  Kochia plant response rating: 65
kochia; 125 g ai/ha
  Plant response rating, Kochia: 100
kochia; 250 g ai/ha
  Plant response rating, Kochia: 100
Yellow nutsedge; 16 g ai/ha
  Nutsedge, Yellow plant response rating: 0
Yellow nutsedge; 31 g ai/ha
  Nutsedge, Yellow plant response rating: 0
Yellow nutsedge; 62 g ai/ha
  Nutsedge, Yellow plant response rating: 0
Yellow nutsedge; 125 g ai/ha
  Plant response rating, Nutsedge, Yellow: 35
Yellow nutsedge; 250 g ai/ha
  Plant response rating, Nutsedge, Yellow: 35

## N#Cc1cccc(Oc2ncc(F)cn2)c1-n1cc(Cl)cn1 [Compound 73]
corn; 16 g ai/ha
  Corn plant response rating: 0
corn; 31 g ai/ha
  Corn plant response rating: 0
corn; 62 g ai/ha
  Corn plant response rating: 0
corn; 125 g ai/ha
  Plant response rating, Corn: 0
corn; 250 g ai/ha
  Plant response rating, Corn: 5
velvetleaf; 16 g ai/ha
  Velvetleaf plant response rating: 0
velvetleaf; 31 g ai/ha
  Velvetleaf plant response rating: 20
velvetleaf; 62 g ai/ha
  Velvetleaf plant response rating: 60
velvetleaf; 125 g ai/ha
  Plant response rating, Velvetleaf: 70
velvetleaf; 250 g ai/ha
  Plant response rating, Velvetleaf: 95
lambsquarters; 16 g ai/ha
  Lambsquarters plant response rating: 10
lambsquarters; 31 g ai/ha
  Lambsquarters plant response rating: 65
lambsquarters; 62 g ai/ha
  Lambsquarters plant response rating: 98
lambsquarters; 125 g ai/ha
  Plant response rating, Lambsquarters: 100
lambsquarters; 250 g ai/ha
  Plant response rating, Lambsquarters: 100
Wild poinsettia; 16 g ai/ha
  Poinsettia, Wild plant response rating: 0
Wild poinsettia; 31 g ai/ha
  Poinsettia, Wild plant response rating: 30
Wild poinsettia; 62 g ai/ha
  Poinsettia, Wild plant response rating: 35
Wild poinsettia; 125 g ai/ha
  Plant response rating, Poinsettia, Wild: 65
Wild poinsettia; 250 g ai/ha
  Plant response rating, Poinsettia, Wild: 85
Large (Lg) crabgrass; 16 g ai/ha
  Crabgrass, Large plant response rating: 0
Large (Lg) crabgrass; 31 g ai/ha
  Crabgrass, Large plant response rating: 30
Large (Lg) crabgrass; 62 g ai/ha
  Crabgrass, Large plant response rating: 100
Large (Lg) crabgrass; 125 g ai/ha
  Plant response rating, Crabgrass, Large: 100
Large (Lg) crabgrass; 250 g ai/ha
  Plant response rating, Crabgrass, Large: 100
Brazilian crabgrass; 16 g ai/ha
  Crabgrass, Brazil plant response rating: 25
Brazilian crabgrass; 31 g ai/ha
  Crabgrass, Brazil plant response rating: 95
Brazilian crabgrass; 62 g ai/ha
  Crabgrass, Brazil plant response rating: 100
Brazilian crabgrass; 125 g ai/ha
  Plant response rating, Crabgrass, Brazil: 100
Brazilian crabgrass; 250 g ai/ha
  Plant response rating, Crabgrass, Brazil: 100
Green foxtail; 16 g ai/ha
  Foxtail, Green plant response rating: 0
Green foxtail; 31 g ai/ha
  Foxtail, Green plant response rating: 20
Green foxtail; 62 g ai/ha
  Foxtail, Green plant response rating: 70
Green foxtail; 125 g ai/ha
  Plant response rating, Foxtail, Green: 80
Green foxtail; 250 g ai/ha
  Plant response rating, Foxtail, Green: 95
sandbur; 16 g ai/ha
  Sandbur plant response rating: 10
sandbur; 31 g ai/ha
  Sandbur plant response rating: 20
sandbur; 62 g ai/ha
  Sandbur plant response rating: 20
sandbur; 125 g ai/ha
  Plant response rating, Sandbur: 30
sandbur; 250 g ai/ha
  Plant response rating, Sandbur: 35
kochia; 16 g ai/ha
  Kochia plant response rating: 5
kochia; 31 g ai/ha
  Kochia plant response rating: 75
kochia; 62 g ai/ha
  Kochia plant response rating: 98
kochia; 125 g ai/ha
  Plant response rating, Kochia: 98
kochia; 250 g ai/ha
  Plant response rating, Kochia: 100
Yellow nutsedge; 16 g ai/ha
  Nutsedge, Yellow plant response rating: 0
Yellow nutsedge; 31 g ai/ha
  Nutsedge, Yellow plant response rating: 0
Yellow nutsedge; 62 g ai/ha
  Nutsedge, Yellow plant response rating: 50
Yellow nutsedge; 125 g ai/ha
  Plant response rating, Nutsedge, Yellow: 40
Yellow nutsedge; 250 g ai/ha
  Plant response rating, Nutsedge, Yellow: 30
